In patent US11939340B2, “CDK inhibitors and their use as pharmaceuticals” (Prelude Therapeutics Incorporated, priority 2022, dated 2024) one finds IC50 data, which are given here for 8 compounds.

One experiment concerns the target CDK2/Cyclin E2 (Homo sapiens, UniProt P24941). In words: CDK2/CyclinE2 Enzymatic Activity Assay (TR-FRET). The class given is biochemical. To be noted: CDK2/CyclinE2 1 nM, ATP 1 mM, read-out: CDK2_El IC50. How it is done: CDK2/CyclinE2 Enzymatic Activity Assay
The inhibitory activity of compounds was evaluated in vitro using TR-FRET assay with white 384-well low volume microplate (Greiner Bio-One). CDK2/Cyclin E2 catalyzed phosphorylation of peptide in the presence and absence of compounds was measured and used in IC50 determination. Recombinant protein complex CDK2/Cyclin E2, expressed from insect cell, was purchased from ProQinase. Testing compounds were dissolved in DMSO at 1 mM and tested in 9-dose IC50 mode. The reaction mixture was prepared by mixing CDK2/CyclinE2 (1 nM final), ULight-4E-BP1 (50 nM final, Perkinelmer, TRF0128-D), and ATP (1 mM final) in assay buffer (20 mM of HEPES pH 7.4, 1 mM of EGTA, 0.05% BSA, 0.005% Tween 20, and 1 mM TCEP). The compound of interest in DMSO was added to each well in 3-fold serial dilution by dispenser (TECAN D300E) to make a 9.9 μL of reaction mixture. After 20 minutes preincubation at room temperature, 0.1 μL MgCl2 (10 mM final) was added to initiate the reaction. Following a 45 minute incubation at 37° C., the reaction was stopped by addition of 2 μL of quenching buffer consisting of Lance detection buffer (Perkinelmer CR97-100C), LANCE Ultra Europium-anti-P-4E-BP1 (Perkinelmer, TRF0216-D), EDTA, and incubate at room temperature for additional 60 minutes in the dark. The reaction signal was measured by Envision multimode plate reader (PerkinElmer, 2102-0010). IC50 values were determined by fitting the data to the standard 4 parameters with Hill Slope using GraphPad Prism software.

The target of the next experiment is T1, CDK4/Cyclin D1 (Homo sapiens, UniProt P11802).
T1 construct: purchased ProQinase; host or cells: insect cell
T1 sequence (P11802 whole entry): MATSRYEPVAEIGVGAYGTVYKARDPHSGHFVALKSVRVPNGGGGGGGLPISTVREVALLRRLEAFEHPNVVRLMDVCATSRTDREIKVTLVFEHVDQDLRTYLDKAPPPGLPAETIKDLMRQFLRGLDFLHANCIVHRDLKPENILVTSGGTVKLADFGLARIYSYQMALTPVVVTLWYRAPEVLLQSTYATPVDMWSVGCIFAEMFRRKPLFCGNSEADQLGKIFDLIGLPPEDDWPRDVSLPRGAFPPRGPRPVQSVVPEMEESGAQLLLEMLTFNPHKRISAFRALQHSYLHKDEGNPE
T1 sequence (P24385 whole entry partner): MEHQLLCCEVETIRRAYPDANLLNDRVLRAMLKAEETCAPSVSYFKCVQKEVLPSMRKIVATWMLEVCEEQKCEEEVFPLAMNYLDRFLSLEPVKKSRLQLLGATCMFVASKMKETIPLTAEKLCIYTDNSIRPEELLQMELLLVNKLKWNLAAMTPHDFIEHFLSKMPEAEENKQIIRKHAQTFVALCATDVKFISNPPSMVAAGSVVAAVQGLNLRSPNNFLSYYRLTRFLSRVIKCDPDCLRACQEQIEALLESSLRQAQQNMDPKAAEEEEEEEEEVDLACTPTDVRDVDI
In words: CDK4/CyclinD1 Enzymatic Activity Assay (TR-FRET). The class given is biochemical. The note with it: CDK4/CyclinD1 1 nM, ATP 2 mM, read-out: CDK4_D1 IC50. How it is done:
CDK4/CyclinD1 Enzymatic Activity Assay
The inhibitory activity of compounds was evaluated in vitro using TR-FRET assay with white 384-well low volume microplate (Greiner Bio-One). CDK4/Cyclin D1 catalyzed phosphorylation of peptide in the presence and absence of compounds was measured and used in IC50 determination. Recombinant protein complex CDK4/Cyclin D1, expressed from insect cell, was purchased from ProQinase. Testing compounds were dissolved in DMSO at 1 mM and tested in 9-dose IC50 mode. The reaction mixture was prepared by mixing CDK4/CyclinD1 (1 nM final), ULight-4E-BP1 (100 nM final, Perkinelmer, TRF0128-D), and ATP (2 mM final) in assay buffer (20 mM of HEPES pH 7.4, 1 mM of EGTA, 0.05% BSA, 0.005% Tween 20, and 1 mM TCEP). The compound of interest in DMSO was added to each well in 3-fold serial dilution by the dispenser (TECAN D300E) to make a 9.9 μL of reaction mixture. After 20 minutes preincubation at room temperature, 0.1 μL MgCl2 (10 mM final) was added to initiate the reaction. Following a 45 minute incubation at 37° C., the reaction was stopped by addition of 2 μL of quenching buffer consisting of Lance detection buffer (Perkinelmer CR97-100C), LANCE Ultra Europium-anti-P-4E-BP1 (Perkinelmer, TRF0216-D), EDTA, and incubated at room temperature for additional 60 minutes in dark. The reaction signal was measured by Envision multimode plate reader (PerkinElmer, 2102-0010). IC50 values were determined by fitting the data to the standard 4 parameters with Hill Slope using GraphPad Prism software.
A general note: In TR-FRET formats the signal depends on donor and acceptor labels being close together.

A further experiment deals with pRB in OVCAR3 cells. Nature of the experiment: pRB ICW Assay in OVCAR3 Cells. It is filed as cell-based. The note with it: Homo sapiens, OVCAR-3, incubated with compound for 2 hours, read-out: OVCAR3 p-RB ICW IC50. How it is done:
pRB ICW Assay in OVCAR3 Cells
OVCAR3 cells were maintained in RPMI (Corning, Catalog #: 10-040-CV) supplemented with 10% v/v FBS (Gibco, Catalog #: 26140-079), 1% v/v Penicillin Streptomycin (Gibco, Catalog #15140-122.) OVCAR3 cells grown at log phase were trypsinized, counted, and resuspended in fresh medium to reach a final density of 6.7e4 cells/mL and 75 μL of culture were dispensed into a 384-well plate (Falcon, cat #353962) using a Multidrop Combi dispenser (Thermo Scientific). The next day, compounds were dispensed as a 9-point, ½ log serial dilution using a Tecan digital dispenser (D300e), and cells were incubated with compound for 2 hours in a humidified incubator at 37° C. A reference compound at a final concentration of 10 μM was used as a control for maximum inhibition. Each compound was tested in duplicates for each experiment. At the end of the incubation, 25 μL of 16% paraformaldehyde (Electron Microscopy, cat #15710) was slowly added to each well and the plate was incubated at room temperature (RT) for 30 minutes to fix cells. Cells were then permeabilized by incubating with 50 μL/well of wash buffer (lx PBS with 0.1% Triton X-100) 5×5 minutes, followed by 1 hour blocking with 30 μL/well of Odyssey blocking buffer (Li—COR, cat #927-40000), at RT. Anti-phosphor RB antibody (Cell signaling 8516S) was diluted 1:1000 in Odyssey blocking buffer and 20 μL was added to all wells and incubated overnight in 4° C. with gently rocking. The next day, cells were washed 5×5 min with 50 μL/well of wash buffer, followed with 1 hour incubation with secondary antibody and DRAQ5 diluted in Odyssey blocking buffer (1:500 dilution for secondary antibody and 1:2000 dilution for DRAQ5), 5×5 min washes, and one last wash with water. Plates were dried in 37° C. oven for 5 minutes and scanned using Li—COR Odyssey CLx imaging system to acquire intensities at 700 and 800 nm channels.

Consider `CS(=O)(=O)N1CCC(Nc2ncc(C(F)(F)F)c(-c3cc4c(s3)C3(C5CC(F)(F)C5)CCCN3C4=O)n2)CC1` (stereo not drawn) [Example 24, 8a-(3,3-Difluorocyclobutyl)-2-(2-((1-(methylsulfonyl)piperidin-4-yl)amino)-5-(trifluoromethyl)pyrimidin-4-yl)-6,7,8,8a-tetrahydro-4H-thieno[2,3-a]pyrrolizin-4-one], for which the results for the IC50 at CDK2/Cyclin E2, at CDK4/Cyclin D1 and in the experiment with pRB in OVCAR3 cells were not above 100 nM, not above 100 nM and 100 to 500 nM, respectively.

As for `CCC12CC(N(C)C)CN1C(=O)c1cc(-c3nc(NC4CCN(S(=O)(=O)c5cnn(C)c5)CC4)ncc3C(F)(F)F)sc12` (stereo not drawn) [Example 50, 7-(Dimethylamino)-8a-ethyl-2-(2-((1-((1-methyl-1H-pyrazol-4-yl)sulfonyl)piperidin-4-yl)amino)-5-(trifluoromethyl)pyrimidin-4-yl)-6,7,8,8a-tetrahydro-4H-thieno[2,3-a]pyrrolizin-4-one], the IC50 on CDK2/Cyclin E2, at CDK4/Cyclin D1 and with pRB in OVCAR3 cells was not above 100 nM in each case.

As for `CCNC1CN2C(=O)c3cc(-c4nc(NC5CCN(S(C)(=O)=O)CC5)ncc4C(F)(F)F)sc3C2(CC)C1` (stereo not drawn) [Example 41, 8a-Ethyl-7-(ethylamino)-2-(2-((1-(methylsulfonyl)piperidin-4-yl)amino)-5-(trifluoromethyl)pyrimidin-4-yl)-6,7,8,8a-tetrahydro-4H-thieno[2,3-a]pyrrolizin-4-one], the IC50 at CDK2/Cyclin E2, on CDK4/Cyclin D1 and in the experiment with pRB in OVCAR3 cells was not above 100 nM each time.

For the compound `CCC12CC(N)CN1C(=O)c1cc(-c3nc(N[C@H]4CCN(S(C)(=O)=O)C[C@H]4C)ncc3C(F)(F)F)sc12` (stereo partly drawn) [Example 45, 7-Amino-8a-ethyl-2-(2-(((3R,4S)-3-methyl-1-(methylsulfonyl)piperidin-4-yl)amino)-5-(trifluoromethyl)pyrimidin-4-yl)-6,7,8,8a-tetrahydro-4H-thieno[2,3-a]pyrrolizin-4-one], the IC50 at CDK2/Cyclin E2, at CDK4/Cyclin D1 and in the experiment with pRB in OVCAR3 cells was not above 100 nM each time.

As for `CCC12CCCN1C(=O)c1cc(-c3nc(NC4CCN(S(C)(=O)=O)CC4)ncc3C(F)(F)F)sc12` (stereo not drawn) [Example 14, 8a-Ethyl-2-[2-[(1-methylsulfonylpiperidin-4-yl)amino]-5-(trifluoromethyl)pyrimidin-4-yl]-7,8-dihydro-6H-thieno[2,3-a]pyrrolizin-4-one], the IC50 on CDK2/Cyclin E2, at CDK4/Cyclin D1 and in the experiment on pRB in OVCAR3 cells was not above 100 nM each time.

On to `CC(C)C12CCCN1C(=O)c1cc(-c3nc(NC4CCN(S(C)(=O)=O)CC4)ncc3C(F)(F)F)sc12` (stereo not drawn) [Example 11, 8a-Isopropyl-2-(2-((1-(methylsulfonyl)piperidin-4-yl)amino)-5-(trifluoro-methyl)pyrimidin-4-yl)-6,7,8,8a-tetrahydro-4H-thieno[2,3-a]pyrrolizin-4-one], for which the IC50 on CDK2/Cyclin E2 is not above 100 nM; at CDK4/Cyclin D1, not above 100 nM; with pRB in OVCAR3 cells, 100 to 500 nM.

Regarding `CCC12CC(N(C)C)CN1C(=O)c1cc(-c3nc(NC4CCN(S(C)(=O)=O)CC4)ncc3C(F)(F)F)sc12` (stereo not drawn) [Example 39, 7-(Dimethylamino)-8a-ethyl-2-(2-((1-(methylsulfonyl)piperidin-4-yl)amino)-5-(trifluoromethyl)pyrimidin-4-yl)-6,7,8,8a-tetrahydro-4H-thieno[2,3-a]pyrrolizin-4-one], the concentration for half-maximal inhibition (IC50) at CDK2/Cyclin E2, on CDK4/Cyclin D1 and in the experiment with pRB in OVCAR3 cells was not above 100 nM throughout.

As to `CS(=O)(=O)N1CCC(Nc2ncc(C(F)(F)F)c(-c3cc4c(s3)C3(CF)CCCN3C4=O)n2)CC1` (stereo not drawn) [Example 18, 8a-(Fluoromethyl)-2-(2-((1-(methylsulfonyl)piperidin-4-yl)amino)-5-(trifluoromethyl)pyrimidin-4-yl)-6,7,8,8a-tetrahydro-4H-thieno[2,3-a]pyrrolizin-4-one], the IC50 at CDK2/Cyclin E2 is not above 100 nM; on CDK4/Cyclin D1 it was not above 100 nM; in the experiment with pRB in OVCAR3 cells, 100 to 500 nM.

The term IC50 denotes the point on the concentration scale where inhibition reaches its midpoint.
